Test results: patent publication US11306063B2, “Heterocyclic naphthoquinones derivatives for use in the treatment of cancers including Cushing disease” (Commissariat a l'Energie Atomique et aux Energies …, priority 2016, dated 2022)
Like-named read-outs stand apart in the source and are kept apart here.

Columns and labels:
[1] = Metabolic stability on mouse liver microsomes; format: in vitro ADME; conditions: 0.5 μM, up to 30 min; for cofactors (CYP)-mediated metabolism, mouse: with cofactors; for metabolism in the absence of cofactors, mouse: without cofactors
Description: (§1) Each compound was incubated either with cofactors (n=2) or without cofactors (n=1). Positive controls were: Diclofenac, Midazolam and Amitriptyline.

[2] = system: Gefitinib-resistant clone H1975; assay: Cell growth inhibition and cell death induction (Incucyte), H1975; format: cell-based, human; conditions: 72 hours, FIG. 12A,B
Text: (§2) FIG. 12: The cell growth inhibition and cell death induction of non-small cell lung cancers (NSCLC), HCC827 cells and derivative Gefitinib-resistant clone H1975 (FIG. 12 A,B) and of PC-3 (FIG. 12 C,D) and LnCAP (FIG. 12 E,F) were monitored using Incucyte microscope. Histogram represent in A,C,E: the final cell area relative to the total well area in (%) and in B,D,F: the fluorescent area in μm2. Error bars indicate standard deviation between 6 technical replicates.
(§3) The cell growth inhibition and cell death induction of non-small cell lung cancers (NSCLC), HCC827 cells and derivative Gefitinib-resistant clone H1975 were monitored during a period of 72 hours using Incucyte microscope and dedicated programs allowing to monitor cell confluency (i.e.: cell surface area relative to total well surface) and cell death induction by adding Propidium Iodide (PI) at 1 μg/ml (Sigma Aldrich #P4864) in the culture medium.

HCC827 cells = assay: Cell growth inhibition and cell death induction (Incucyte), HCC827; format: cell-based, human; conditions: 72 hours, FIG. 12A,B
Text: as §2, §3

[3] = biological target: T1, USP2^CD (purified catalytic domain of USP2) (Homo sapiens, UniProt O75604); assay: Inhibition of purified USP2^CD enzymatic activity (Ub-AMC or Ub-Rho substrate); format: biochemical; conditions: for inhibition at 1 µM: 1 μM compound; for inhibition at 5 µM: 5 μM compound; for inhibition at 25 µM: 25 μM compound; for inhibition at 50 µM: 50 μM compound; for inhibition of USP2^CD activity (IC50 range, FIG. 1): Ub-Rho substrate (0.1 μM); for inhibition at 0.01 µM: 0.01 μM compound; for inhibition at 0.05 µM: 0.05 μM compound; for inhibition at 0.1 µM: 0.1 μM compound; for inhibition at 0.5 µM: 0.5 μM compound; for inhibition at 10 µM: 10 μM compound
T1 construct: The purified catalytic domain of USP2 (USP2^CD, in-house purified); His; made in house; host or cells: E. coli BL21 Gold
T1 sequence (O75604 267-599 limits assumed): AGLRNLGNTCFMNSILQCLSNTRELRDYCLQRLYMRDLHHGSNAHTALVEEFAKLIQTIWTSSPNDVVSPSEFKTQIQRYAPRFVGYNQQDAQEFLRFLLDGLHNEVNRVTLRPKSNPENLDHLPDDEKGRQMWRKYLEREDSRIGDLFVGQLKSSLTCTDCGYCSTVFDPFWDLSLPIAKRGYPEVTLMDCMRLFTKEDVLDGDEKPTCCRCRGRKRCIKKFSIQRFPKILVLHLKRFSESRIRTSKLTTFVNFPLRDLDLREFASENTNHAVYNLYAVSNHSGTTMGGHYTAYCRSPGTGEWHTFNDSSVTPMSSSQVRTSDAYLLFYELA
In short: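 His-tagged catalytic domain expressed in E. coli and Ni/gel-filtration purified; assayed in 50 mM HEPES pH 7.6 or 40 mM Tris pH 7.4 with 1 mM DTT. Compound added just before Ub-AMC or Ub-Rho substrate; fluorescence from hydrolysis followed over 20 or 30 min, median of duplicates.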

[4] = system: CyclinD1, FAS, p53, PARP, cMyc in LNCaP cells; assay: Protein expression by immunoblot, LNCaP; format: cell-based, human; conditions: for Myc expression level, LNCaP / PARP cleavage, LNCaP: 24 h; for Myc expression level, LNCaP / PARP cleavage, LNCaP / phosphorylated p53 (P-Ser392, P-Ser15), LNCaP: FIG. 8; for PARP cleavage, LNCaP: concentration dependent; for phosphorylated p53 (P-Ser392, P-Ser15), LNCaP: FIG. 7C
Description: In FIG. 6B and FIG. 6D, LNCaP cells were treated with dihydrotestosterone (DHT) to induce hormonal dependent FAS expression. Actin or Tubulin (Tub) serve as loading controls. One representative experiment out of three is presented.
Actin or Tubulin (Tub) serve as loading controls. One representative experiment out of three is presented.
Tubulin (Tub) serves as loading controls. One representative experiment out of three is presented.
Cells were treated by either DMSO (0.5%) or increasing doses of the selected molecules from 1 μM to 10 μM over 6 to 24 hours as indicated. Cell lysates were analyzed by immunoblotting following standard procedure using primary antibodies from Cell Signaling: anti-total P53 (#9282), anti-phosphoP53 Kit (#9919), anti-cyclinD1 (#2926), anti-FAS (#3189), anti EGFR (#4267), anti-Phospho (tyr1068) EGFR (#2234), anti Met (#4560), anti-Akt (#9272), anti Phospho(Ser473)-Akt (#9271) or anti-Myc (Santa Cruz Technology #Sc-40). Tubulin was detected using anti α-tubulin primary antibody (in-house: the polyclonal Glu-tubulin antibody (L4) is available commercially from Abcys (Paris, France)). HRP-coupled anti-rabbit (#A6154) and anti-mouse (#A4416) secondary antibodies were purchased from Sigma. HRP activity was detected through HRP chemoluminescence detection reagent (Millipore, #WBLUF0100). Apoptotic cell death induction was observed through the observation of PARP cleavage using anti-PARP primary antibodies anti-PARP (46D11) (#9532). Positive control was Epotoside at 50 μM or 100 μM, a known drug inducing cancerous cell death by apoptosis.

[5] = Metabolic stability on human liver microsomes; format: in vitro ADME; conditions: 0.5 μM, up to 30 min; for cofactors (CYP)-mediated metabolism, human: with cofactors; for metabolism in the absence of cofactors, human: without cofactors
Description: as §1

[6] = system: PC-3 prostatic cancer cells; assay: Cell growth inhibition and cell death induction (Incucyte), PC-3; format: cell-based, human; conditions: 48 hours, FIG. 12C,D
Text: as §2, §3

[7] = Ub-AMC substrate at 1 μM, Table 2b, read-out: IC50 USP2 CD
[8] = dose and time dependent, 6 h or 24 h, FIG. 6

| SMILES | cofactors (CYP)-mediated metabolism, mouse [1] | metabolism in the absence of cofactors, mouse [1] | cell growth inhibition and cell death induction, H1975 [2] | cell growth inhibition and cell death induction, HCC827 (HCC827 cells) | inhibition of USP2^CD activity (IC50 range, FIG. 1) [3] | Myc expression level, LNCaP [4] | PARP cleavage, LNCaP [4] | phosphorylated p53 (P-Ser392, P-Ser15), LNCaP [4] | cofactors (CYP)-mediated metabolism, human [5] | metabolism in the absence of cofactors, human [5] | cell growth inhibition and cell death induction, PC-3 [6] | inhibition at 0.01 µM ([3]; Table 1c) [%] | inhibition at 0.05 µM ([3]; Table 1c) [%] | inhibition at 0.1 µM ([3]; Table 1c) [%] | inhibition at 0.5 µM ([3]; Table 1c) [%] | inhibition at 1 µM ([3]; Table 1b) [%] | inhibition at 1 µM ([3]; Table 1c) [%] | inhibition at 5 µM ([3]; Table 1b) [%] | inhibition at 5 µM ([3]; Table 1c) [%] | inhibition at 10 µM ([3]; Table 1c) [%] | other results |
| --- | --- | --- | --- | --- | --- | --- | --- | --- | --- | --- | --- | --- | --- | --- | --- | --- | --- | --- | --- | --- | --- |
| CCCCS(=O)(=O)Cc1nc2c(o1)C(=O)c1ccccc1C2=O [PCR9301] | not or poorly metabolized | No metabolism was observed | inhibit cell growth and induce cell death in a dose dependent manner | inhibit cell growth and induce cell death in a dose dependent manner | in the micromolar range | cMyc degradation | induced PARP cleavage | phosphorylation of p53 on Ser15 | not or poorly metabolized | No metabolism was observed | – | – | – | – | – | – | – | – | – | – | inhibition at 1 µM ([3]; Table 3a): 77%; inhibition at 5 µM ([3]; Table 3a): 99%; inhibition at 25 µM ([3]; Table 3a): 100%; inhibition at 50 µM ([3]; Table 3a): 100%; IC50 ([3]; Ub-Rho substrate, Table 3b, read-out: IC50 against purified USP2^CD): 400 nM |
| O=C1c2ccccc2C(=O)c2nc(CS(=O)(=O)c3ccccc3F)c(CS(=O)(=O)c3ccccc3F)nc21 [OVM24] | – | – | – | – | – | – | – | – | – | – | inhibit cell growth and induce cell death in a dose dependent manner | -29 | 2 | 9 | 10 | 54 | 12 | 68 | 20 | 17 | inhibition at 25 µM ([3]; Table 1b): 86%; inhibition at 50 µM ([3]; Table 1b): 96%; IC50 [3, 7]: > 10000 nM |
| CCCCS(=O)(=O)Cc1nc2c(nc1CS(=O)(=O)CCCC)C(=O)c1ccccc1C2=O [PCR6236] | high | No metabolism was observed | inhibit cell growth and induce cell death in a dose dependent manner | inhibit cell growth and induce cell death in a dose dependent manner | in the micromolar range | decrease | induced the cleavage of PARP | accumulated | low | No metabolism was observed | inhibit cell growth and induce cell death in a dose dependent manner | – | – | – | – | – | – | – | – | – | IC50 [3]: 2100 nM; expression level of CyclinD1, LNCaP [4, 8]: strongly decreased; expression level of FAS, LNCaP [4, 8]: strongly decreased; p53 expression, LNCaP ([4]; dose dependent, FIG. 7A): restored high levels of p53 expression |
| CCCS(=O)(=O)Cc1nc2c(nc1CS(=O)(=O)CCC)C(=O)c1ccccc1C2=O [VIN6074] | – | – | – | – | – | – | – | – | – | – | inhibit cell growth and induce cell death in a dose dependent manner | 1 | -13 | -23 | 23 | 38 | 17 | 81 | 70 | 77 | inhibition at 25 µM ([3]; Table 1b): 98%; inhibition at 50 µM ([3]; Table 1b): 101%; IC50 [3, 7]: 3000 nM; IC50 ([3]; Ub-Rhodamine substrate at 0.1 μM, Table 2c, read-out: IC50 USP2 CD): 500 nM |
